Tests used:
Assay type in all cases: in vivo
[1] = test system: Blumeria graminis f. sp. hordei; assay: Blumeria graminis test (barley)/protective; settings: protective spray, 500 ppm, evaluation 7 days after inoculation
Protocol: [table] To produce an appropriate active ingredient formulation, 1 part by weight of active ingredient is mixed with the specified amounts of solvent and emulsifier, and the concentrate is diluted with water to the desired concentration. To test for protective activity, young plants are sprayed with the active ingredient formulation at the stated application rate. After the spray coating has dried on, the plants are dusted with spores of Blumeria graminis f. sp. hordei.

Botrytis cinerea = assay: Botrytis test (bean)/protective; settings: protective spray, 250 ppm, evaluation 2 days after inoculation
Protocol: [table] To produce an appropriate active ingredient formulation, 1 part by weight of active ingredient is mixed with the specified amounts of solvent and emulsifier, and the concentrate is diluted with water to the desired concentration. To test for protective activity, young plants are sprayed with the active ingredient formulation at the stated application rate. After the spray coating has dried on, 2 small pieces of agar colonized by Botrytis cinerea are placed onto each leaf.

Fusarium graminearum = settings: barley, protective spray, 500 ppm, evaluation 5 days after inoculation
Leptosphaeria nodorum = Leptosphaeria nodorum test (wheat)/protective; settings: protective spray, 500 ppm, evaluation 8 days after inoculation
Protocol: [table] To produce an appropriate active ingredient formulation, 1 part by weight of active ingredient is mixed with the specified amounts of solvent and emulsifier, and the concentrate is diluted with water to the desired concentration. To test for protective activity, young plants are sprayed with the active ingredient formulation at the stated application rate. After the spray coating has dried on, the plants are sprayed with spores with a spore suspension of Leptosphaeria nodorum.

Puccinia recondita [2] = assay: Puccinia test (wheat)/protective; settings: protective spray, 500 ppm, evaluation 7-9 days after inoculation
Pyrenophora teres = Pyrenophora teres test (barley)/protective; settings: protective spray, 500 ppm, evaluation 8 days after inoculation
Protocol: [table] To produce an appropriate active ingredient formulation, 1 part by weight of active ingredient is mixed with the specified amounts of solvent and emulsifier, and the concentrate is diluted with water to the desired concentration. To test for protective activity, young plants are sprayed with the active ingredient formulation at the stated application rate. After the spray coating has dried on, the plants are sprayed with a spore suspension of Pyrenophora teres.

Septoria tritici = Septoria tritici test (wheat)/protective; settings: protective spray, 500 ppm, evaluation 21 days after inoculation
Sphaerotheca fuliginea = assay: Sphaerotheca test (cucumber)/protective; settings: protective spray, 500 ppm, evaluation 7 days after inoculation
Protocol: [table] To produce an appropriate active ingredient formulation, 1 part by weight of active ingredient is mixed with the specified amounts of solvent and emulsifier, and the concentrate is diluted with water to the desired concentration. To test for protective activity, young cucumber plants are sprayed with the active ingredient formulation at the stated application rate. 1 day after the treatment, the plants are inoculated with a spore suspension of Sphaerotheca fuliginea. The plants are then placed in a greenhouse at 70% relative air humidity and a temperature of 23° C.

Uromyces appendiculatus = assay: Uromyces test (bean)/protective; settings: protective spray, 100 ppm, evaluation 10 days after inoculation
Protocol: (§1) [table] To produce an appropriate active ingredient formulation, 1 part by weight of active ingredient is mixed with the specified amounts of solvent and emulsifier, and the concentrate is diluted with water to the desired concentration. To test for protective activity, young plants are sprayed with the active ingredient formulation at the stated application rate. […] The plants are then placed in a greenhouse at approx. 21° C. and a relative air humidity of approx. 90%.

Venturia inaequalis = assay: Venturia test (apple)/protective; settings: protective spray, 100 ppm, evaluation 10 days after inoculation
Protocol: as §1

Pyricularia oryzae = settings: rice, protective spray, 250 ppm, evaluation 5 days after inoculation
Cochliobolus miyabeanus = assay: Cochliobolus test (rice)/protective; settings: protective spray, 250 ppm, evaluation 4 days after inoculation
Phakopsora pachyrhizi = assay: Phakopsora test (soya beans)/protective; settings: protective spray, 100 ppm, evaluation 1 days after inoculation (so in the source)
Fusarium culmorum = assay: Fusarium test (wheat)/seed treatment; settings: dose 50 g/dt (rate 100 [sic]), 14 days at 20° C., counting emerged plants
Protocol: The test was conducted under greenhouse conditions. Wheat seeds treated with an inventive active compound or a combination of inventive active compounds were sown in 6×6 cm vessels, into a mixture of steamed field soil and sand (1:1). The test compound(s) were dissolved in N-methyl-2-pyrrolidone and diluted to the desired concentration with water. Wheat kernels were inoculated with spores of Fusarium culmorum. The infected and ground kernels were distributed between the treated wheat seeds. The seeds were covered with a top layer of clay granules and incubated in a greenhouse at 20° C. for 14 days. Evaluation was effected by counting the plants which emerged. 0% means an efficacy which corresponds to that of the untreated control, whereas an efficacy of 100% means that all seeds have germinated. In this test, the following inventive compounds show an efficiency of 70% or higher at a dose of 50 g/dt.: […]

Microdochium nivale = assay: Microdochium test (wheat)/seed treatment; settings: dose 50 g/dt (rate 100 [sic]), 21 days at 10° C., counting emerged plants
Protocol: The test was conducted under greenhouse conditions. Wheat seeds treated with an inventive active compound or a combination of inventive active compounds were sown in 6×6 cm vessels, into a mixture of steamed field soil and sand (1:1). The test compound(s) were dissolved in N-methyl-2-pyrrolidone and diluted to the desired concentration with water. Wheat kernels were inoculated with spores of Microdochium nivale. The infected and ground kernels were distributed between the treated wheat seeds. The seeds were covered with a top layer of steamed field soil and sand (1:1) and incubated in a greenhouse at 10° C. for 21 days. […] In this test, the following inventive compounds show an efficiency of 70% or higher at a dose of 50 g/dt.

Puccinia recondita [3] = assay: Puccinia test (wheat)/seed treatment; settings: dose 50 g/dt (rate 100 [sic]), inoculated 14 days after sowing, evaluated 9 days later, infected leaf area
Protocol: The test was conducted under greenhouse conditions. Wheat seeds treated with an inventive active compound or a combination of inventive active compounds were sown in 6×6 cm vessels, into a mixture of steamed field soil and sand (1:1). The test compound(s) were dissolved in N-methyl-2-pyrrolidone and diluted to the desired concentration with water. The wheat grains treated were sown and placed in a greenhouse at 10° C. 14 days after sowing, the plants were inoculated with a spore suspension of Puccinia recondita. The plants were incubated at 20° C. for a further 9 days. […] In this test, the following inventive compounds show an efficiency of 70% or higher at a dose of 50 g/dt: […]

Leptosphaeria maculans = assay: Leptosphaeria test (oilseed rape)/seed treatment; settings: dose 50 g/dt (rate 100 [sic]), 14 days at 10° C. and 7 days at 18° C., counting emerged plants
Protocol: The test was conducted under greenhouse conditions. […] treated with an inventive active compound or a combination of inventive active compounds were sown in 6×6 cm vessels, into a mixture of steamed field soil and sand (1:1). The test compound(s) were dissolved in N-methyl-2-pyrrolidone and diluted to the desired concentration with water. Perlite was inoculated with spores of Leptosphaeria maculans. The infected perlite was distributed between the treated […]. The seeds were covered with a top layer of steamed field soil and sand (1:1) and incubated in a greenhouse at 10° C. for 14 days and at 18° C. for 7 days. […] In this test, the following inventive compounds show an efficiency of 70% or higher at a dose of 50 g/dt.: […]

Rhizoctonia solani = assay: Rhizoctonia test (cotton)/seed treatment; settings: dose 50 g/dt (rate 100 [sic]), 7 days at 20° C., counting emerged and diseased plants
Protocol: The test was conducted under greenhouse conditions. Cottonseeds treated with an inventive active compound or a combination of inventive active compounds were sown in 6×6 cm vessels, into a mixture of steamed field soil and sand (1:1). The test compound(s) were dissolved in N-methyl-2-pyrrolidone and diluted to the desired concentration with water. Perlite was inoculated with spores of Rhizoctonia solani. The infected perlite was distributed between the treated cottonseeds. The seeds were covered with a top layer of clay granules and incubated in a greenhouse at 20° C. for 7 days. […] In this test, the following inventive compounds show an efficiency of 70% or higher at a dose of 50 g/dt: […]

OC(Cc1ccccc1Cl)(Cn1ncnc1I)C1(Cl)CC1 (stereo not drawn) [Compound 3]
Efficacy (%) [1]: 100% | Efficacy (%) (Botrytis cinerea): 100% | Efficacy (%) (Fusarium graminearum): 100% | Efficacy (%) (Leptosphaeria nodorum): 100% | Efficacy (%) (Puccinia recondita [2]): 100% | Efficacy (%) (Pyrenophora teres): 100% | Efficacy (%) (Septoria tritici): 88% | Efficacy (%) (Sphaerotheca fuliginea): 100% | Efficacy (%) (Uromyces appendiculatus): 100% | Efficacy (%) (Venturia inaequalis): 100% | Efficacy (%) (Pyricularia oryzae): 94% | efficacy (Cochliobolus miyabeanus): ≥ 98% | Efficacy (%) (Phakopsora pachyrhizi): 98% | Efficacy (%) (Fusarium culmorum): 100% | Efficacy (%) (Microdochium nivale): 100% | Efficacy (%) (Puccinia recondita [3]): 100% | Efficacy (%) (Leptosphaeria maculans): 100% | Efficacy (%) (Rhizoctonia solani): 100%

Source: US8969248B2, “5-iodotriazole derivatives” (Bayer Intellectual Property GmbH, priority 2010, dated 2015)
